Measurements as given in patent US11396505B2, “Inhibitors of CaMKK2 and uses of same” (New York University, priority 2019, dated 2022).

Key:
CaMKK2 [1] = biological target: T1, CaMKK2 (Homo sapiens, UniProt Q96RR4); assay: CaMKK1/2 biochemical assay, 32P radiometric kinase assay (CaMKK2)
CaMKK1 = CaMKK1 (Homo sapiens, UniProt Q8N5S9); assay: CaMKK1/2 biochemical assay, 32P radiometric kinase assay (CaMKK1)
Method: (§1) The following is an example of a CaMKK1/2-biochemical assay. Compounds were tested for CaMKK1/2 inhibition using a ^32P radiometric kinase assay as follows: A freshly prepared kinase reaction buffer (20 mM Hepes (pH 7.5), 10 mM MgCl2, 1 mM EGTA, 0.02% Brij35, 0.02 mg/ml BSA, 0.1 mM Na3VO4, 2 mM DTT, 1% DMSO) was treated with Myelin Basic Protein (final concentration=20 μM), CaCl2) (final concentration=1.5 mM), Calmodulin (final concentration=0.96 μM) and either CaMKK2 (final reaction concentration=120 nM) or CaMKK1 (final reaction concentration=150 nM) and gently mixed. Compounds were added as aliquots from 10 mM DMSO stock solutions such that the final compound concentration in the assay was either 10 μM, 0.5 μM or 0.2 μM. This mixture was allowed to incubate for 20 minutes at room temperature. ^32P-ATP (specific activity 10 μCi/μL) was added and the mixture was allowed to incubate for 2 hours at room temperature. The reaction mixture was spotted onto P81 ion exchange paper. The kinase activity was detected by the filter binding method.

CaMKK2 [2] = biological target: T1, CaMKK2; assay: CaMKK1/2 biochemical assay, 32P radiometric kinase assay (CaMKK2); settings: for inhibition at 0.2 µM: 0.2 μM compound, read-out: CaMKK2 % inhibition @ concentrations shown, 0.2 μM; for inhibition at 0.5 µM: 0.5 μM compound, read-out: CaMKK2 % inhibition @ concentrations shown, 0.5 μM; for inhibition at 10 µM: 10 μM compound, read-out: CaMKK2 % inhibition @ concentrations shown, 10 μM
Method: as §1

[3] = despite achieving high plasma concentrations; cited from earlier work
[4] = cited from earlier work
ArH receptor = biological target: T2, ArH receptor (Homo sapiens, UniProt P35869); settings: cited from earlier work
T2 sequence (P35869 11-848): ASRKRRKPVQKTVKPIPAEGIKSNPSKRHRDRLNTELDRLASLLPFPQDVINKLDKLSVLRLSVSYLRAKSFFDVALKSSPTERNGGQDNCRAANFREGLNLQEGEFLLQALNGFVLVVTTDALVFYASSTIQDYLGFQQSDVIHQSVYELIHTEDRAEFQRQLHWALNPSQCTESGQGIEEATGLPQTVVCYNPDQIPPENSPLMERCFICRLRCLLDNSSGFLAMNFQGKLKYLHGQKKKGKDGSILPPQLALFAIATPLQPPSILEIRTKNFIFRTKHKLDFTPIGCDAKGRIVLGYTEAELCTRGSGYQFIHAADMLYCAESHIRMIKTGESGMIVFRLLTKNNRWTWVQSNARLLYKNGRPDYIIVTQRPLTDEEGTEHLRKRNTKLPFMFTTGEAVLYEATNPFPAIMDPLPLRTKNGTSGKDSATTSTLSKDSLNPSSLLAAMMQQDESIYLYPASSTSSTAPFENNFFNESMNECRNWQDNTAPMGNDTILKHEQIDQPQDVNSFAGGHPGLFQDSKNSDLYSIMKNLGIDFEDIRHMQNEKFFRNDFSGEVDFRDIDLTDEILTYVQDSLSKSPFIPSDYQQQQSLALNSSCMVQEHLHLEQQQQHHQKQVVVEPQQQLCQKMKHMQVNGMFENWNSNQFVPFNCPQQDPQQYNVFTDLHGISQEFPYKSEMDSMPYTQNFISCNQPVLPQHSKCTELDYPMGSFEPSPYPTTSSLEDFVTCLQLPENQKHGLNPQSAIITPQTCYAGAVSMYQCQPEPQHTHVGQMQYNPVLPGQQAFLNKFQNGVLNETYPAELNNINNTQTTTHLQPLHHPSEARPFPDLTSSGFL

[5] = cited from earlier work; remark: listed apart in the source

Compound | IC50 (CaMKK2 [1]) [nM] | inhibition at 0.2 µM (CaMKK2 [2]) [%] | Biochemical Data CaMKK1, inh @ 0.2 μM (CaMKK1) [% inh @ 0.2 μM] | Biochemical Data CaMKK2, inh @ 0.2 μM (CaMKK2 [2]) [% inh @ 0.2 μM] | other results
O=C1OCCN1c1ccc2[nH]nc(-c3cc4ccccc4[nH]3)c2c1 [Example 3, 3-(3-(1H-indol-2-yl)-1H-indazol-5-yl)oxazolidin-2-one] | 70 | 80 | – | – | IC50 (CaMKK1): 141 nM; inhibition at 0.5 µM (CaMKK2 [2]): 94%; inhibition at 10 µM (CaMKK2 [2]): 100%
O=C1OCCN1c1ccc2[nH]nc(/C=C/c3ccccn3)c2c1 [Example 4, (E)-3-(3-(2-(pyridin-2-yl)vinyl)-1H-indazol-5-yl)oxazolidin-2-one] | 190 | 55 | – | – | inhibition at 0.5 µM (CaMKK2 [2]): 81%; inhibition at 10 µM (CaMKK2 [2]): 98%
O=C1OCCN1c1ccc2[nH]nc(-c3ccc(Cl)cc3)c2c1 [Example 24, 3-(3-(4-chlorophenyl)-1H-indazol-5-yl)oxazolidin-2-one] | – | 41 | <5 | 41 | –
O=C1OCCN1c1ccc2[nH]nc(-c3cccc(-c4ccccc4)c3)c2c1 [Example 26, 3-(3-([1,1′-biphenyl]-3-yl)-1H-indazol-5-yl)oxazolidin-2-one] | – | 36 | <5 | 36 | –
COc1ccc(/C=C/c2n[nH]c3ccc(N4CCOC4=O)cc23)cc1 [Example 31, (E)-3-(3-(4-methoxystyryl)-1H-indazol-5-yl)oxazolidin-2-one] | 33 | 81 | – | – | IC50 (CaMKK1): 536 nM
O=C1OCCCN1c1ccc2[nH]nc(-c3cc4ccccc4[nH]3)c2c1 [Example 40, 3-(3-(1H-indol-2-yl)-1H-indazol-5-yl)-1,3-oxazinan-2-one] | – | 37 | <5 | 37 | –
O=C1CCCCN1c1ccc2[nH]nc(-c3cc4ccccc4[nH]3)c2c1 [Example 41, 1-(3-(1H-indol-2-yl)-1H-indazol-5-yl)piperidin-2-one] | – | 12 | <5 | 12 | –
COc1cccc2cc(-c3nc([C@H]4CC[C@H](C(=O)O)CC4)n4ncnc(N)c34)[nH]c12 [OSI-027] | – | – | – | – | tissue and tumor penetration [3]: poor tissue and tumor penetration
O=C(O)c1ccc2c3c1cccc3c(=O)n1c3ccccc3nc21 [STO-609] | – | – | – | – | brain entry ([4]; 9.4 mg/kg ip dose): fails to enter the brain; plasma concentrations ([4]; 9.4 mg/kg ip dose): > 30 µM; tissue Cmax values ([4]; tissue penetration, 9.4 mg/kg ip): ≤ 1 µM; elimination completed in ([4]; tissues): ≤ 8 h (h); agonist of the ArH receptor (ArH receptor): 43 nM; permeability [5]: poor permeability
